For assay [1], the system named is gingival fibroblasts which extremely decompose collagen gel, derived from a patient with periodontitis. Put plainly: three-dimensional collagen gel culture system, collagen degradation (Experimental Example 1). The conditions noted are these: day 5 of suspension culture; compared to control; HGF 50 ng/mL; HGF-neutralizing antibody 20 μg/mL. The class given is cell-based, human. The procedure:
First, a three-dimensional collagen gel culture system of gingival fibroblasts previously developed by the present inventors will be described with reference to FIGS. 1(a) to 1(d). In this culture system, it is possible to evaluate the influence of a test substance on degradation of collagen in periodontal tissues in vitro and to obtain results close to in vivo.
First, as shown in FIG. 1(a), gingival fibroblasts derived from a patient with periodontitis and a test substance are added into collagen gel, and the mixture is poured into a petri dish. Subsequently, the mixture is incubated at 37° C. for 30 minutes and the collagen gel is hardened. Subsequently, gingival epithelial cells derived from the patient with periodontitis are seeded on the hardened collagen gel and incubated overnight.
Subsequently, as shown in FIG. 1(b), the collagen gel is peeled off from the petri dish to make the collagen gel float. At this time, the test substance is also added into a medium in which the collagen gel floats. Subsequently, the suspension culture is continued for 5 days. Meanwhile, the collagen gel is degraded and contracts due to various factors produced by an interaction between the gingival fibroblasts and the gingival epithelial cells. […]
Subsequently, as shown in FIG. 1(c), the amount of residual collagen is quantitatively determined on day 5 of suspension culture. […]

Assay [2] deals with normal gingival fibroblasts. Put plainly: three-dimensional collagen gel culture system with normal gingival fibroblasts (Experimental Example 1). The class given is cell-based, human. The conditions noted are these: day 5 of suspension culture, HGF 25 and 50 ng/mL, HGF-neutralizing antibody 20 μg/mL. An excerpt:
In addition, gingival fibroblasts with a low resolution of collagen gel (hereinafter, sometimes referred to as “normal gingival fibroblasts”) were used as controls. Gingival fibroblasts with which the contraction of collagen gel having a diameter of 35 mm remained to a diameter of about 10 mm were used as normal gingival fibroblasts.
In addition, the same collagen gel as the above-described collagen gel was produced for comparison except that the above-described normal gingival fibroblasts were used instead of the gingival fibroblasts which extremely decompose collagen gel.
Subsequently, each prepared collagen gel piece was incubated at 37° C. After 24 hours, each collagen gel piece was peeled off from a plate and was suspended (on day 1 of culture). Each test substance (HGF-neutralizing antibody and HGF) having the same concentration as that described above was added to a medium. Subsequently, suspension culture of collagen gel was continued at 37° C., and collagen gel was observed on day 5 after the start of the suspension culture.
FIGS. 2(a) to 2(h) are photographs of each collagen gel piece on day 5 after the start of the suspension culture. Each mass floating in each well in FIGS. 2(a) to 2(h) is collagen gel. FIGS. 2(a) to 2(d) show results of collagen gel containing gingival fibroblasts which extremely decompose collagen gel. […]

Assay [3] relates to gingival fibroblasts extremely decomposing collagen gel (PAF1, PAF2). Put plainly: weight of collagen gel after three-dimensional culture (Experimental Example 3). It is filed as cell-based, human. The conditions noted are these: HGF 50 ng/mL, HGF-neutralizing antibody 20 μg/mL; for weight of collagen gel: day 5 of suspension culture. The procedure:
Cell matrix type I-A (Nitta Gelatin Inc.), 5×DMEM, a buffer solution for reconstitution (Nitta gelatin) were mixed with each other to prepare a collagen mixed solution. An HGF-neutralizing antibody (model “AB-294-NA”, R&D) was added to this collagen mixed solution so that the final concentration became 20 μg/mL. In addition, a sample containing no test substance (control) and a sample to which HGF (model “100-39”, PeproTech, Inc.) was added so that the final concentrations became 50 ng/mL were prepared for comparison.
Subsequently, the same gingival fibroblasts, which extremely decompose collagen gel, as in Experimental Example 1 were mixed with these collagen mixed solutions and seeded in a 6-well plate so that the cell density became 2.5×10^5 cells/well. Subsequently, the mixture was incubated at 37° C. for 30 minutes and the collagen gel was hardened. Two kinds of cells (hereinafter, referred to as “PAF1” and “PAF2”) were used as gingival fibroblasts extremely decomposing collagen gel.
Subsequently, the same gingival epithelial cells as in Experimental Example 1 were dispersed by trypsin treatment, and were then seeded on the above-described collagen gel at 2×10^5 cells/well to form a single layer of the epithelial cells.
Subsequently, each prepared collagen gel was incubated at 37° C. After 24 hours, each collagen gel piece was peeled off from a plate and was suspended (on day 1 of culture). HGF-neutralizing antibodies having the same concentration as that described above were added to a medium of a test group. Subsequently, suspension culture of collagen gel was continued at 37° C.
Collagen gel was collected on day 5 after the start of the suspension culture, and the weight thereof was measured. FIGS. 5(a) and 5(b) are photographs of collected collagen gel. […] In FIGS. 5(a) and 5(b), the “control” indicates control collagen gel, “HGF” indicates collagen gel to which HGF is added, and the “HGF-neutralizing antibody” indicates collagen gel to which an HGF-neutralizing antibody is added.

Assay [4] has as its system monkey gingival fibroblasts which extremely decompose collagen gel. The assay can be described thus: three-dimensional collagen gel culture system with monkey gingival fibroblasts (Experimental Example 4). The class given is cell-based, Macaca fascicularis. The conditions noted are these: HGF 50 ng/mL, HGF-neutralizing antibody 20 μg/mL. The source says: Before clinical application of the therapeutic agent for periodontitis of the present invention to humans, it is necessary to conduct experiments using monkeys. An effect of an HGF-neutralizing antibody on degradation of collagen using gingival fibroblasts derived from a monkey naturally occurred periodontitis was examined using the same three-dimensional collagen gel culture system as in Experimental Example 1. Since it is difficult to culture gingival epithelial cells of monkeys, human gingival epithelial cells were used as gingival epithelial cells. Tissue of a gingiva piece derived from an euthanasia individual of a monkey (Macaca fascicularis, raised in Tsukuba Primate Research Center) naturally occurred periodontitis was cut, and then, the tissue pieces were allowed to stand on the bottom of a cell culture plate. Subsequently, outgrown cells from the tissue pieces were subcultured as a first generation to obtain monkey gingival fibroblasts. The obtained gingival fibroblasts were once cultured in the above-described three-dimensional collagen gel culture system to observe collagen resolution, and gingival fibroblasts which extremely decompose collagen gel (that is, with which collagen gel were degraded and contracted). […]

Take “HGF: HGF (model “100-39”, PeproTech, Inc.), hepatocyte growth factor added for comparison”: the “degradation of collagen (observation of collagen gel)” value in assay [1] is reported as “clearly accelerated”; in assay [4] (monkey gingival fibroblasts with human gingival epithelial cells (SAF1, SAF2), day 5 of suspension culture, compared to controls) it was “promoted”. The “difference in decomposition of collagen” value in assay [2] was “no difference”. The “weight of collagen gel” value in assay [3] (PAF1, control 0.013 g) is 0.011 g; in assay [3] (PAF2, control 0.034 g) it was 0.028 g. Further, the “degradation of collagen gel” value in assay [3] (PAF1 and PAF2, compared to control collagen gel) is “remarkably accelerated”. Besides, the “vacuoles around cells (hematoxylin-eosin staining of thin section of collagen gel)” value in assay [4] (monkey gingival fibroblasts, SAF1) was “a vacuole is formed around the cell”.
